In ChEMBL document CHEMBL5465560, “Selectivity Literature for EUbOPEN Chemogenomic Library” (2024):
Positions count from the first letter of the chain named.

How the values were obtained:
Details in all cases: at 1 µM
[1] = test system: T1, Receptor-type tyrosine-protein kinase FLT3 (Homo sapiens), P36888 [D835V]; assay: (§1) Selectivity interaction (KinomeScan (DiscoverX)) EUB0000311b FLT3
T1 sequence (whole entry): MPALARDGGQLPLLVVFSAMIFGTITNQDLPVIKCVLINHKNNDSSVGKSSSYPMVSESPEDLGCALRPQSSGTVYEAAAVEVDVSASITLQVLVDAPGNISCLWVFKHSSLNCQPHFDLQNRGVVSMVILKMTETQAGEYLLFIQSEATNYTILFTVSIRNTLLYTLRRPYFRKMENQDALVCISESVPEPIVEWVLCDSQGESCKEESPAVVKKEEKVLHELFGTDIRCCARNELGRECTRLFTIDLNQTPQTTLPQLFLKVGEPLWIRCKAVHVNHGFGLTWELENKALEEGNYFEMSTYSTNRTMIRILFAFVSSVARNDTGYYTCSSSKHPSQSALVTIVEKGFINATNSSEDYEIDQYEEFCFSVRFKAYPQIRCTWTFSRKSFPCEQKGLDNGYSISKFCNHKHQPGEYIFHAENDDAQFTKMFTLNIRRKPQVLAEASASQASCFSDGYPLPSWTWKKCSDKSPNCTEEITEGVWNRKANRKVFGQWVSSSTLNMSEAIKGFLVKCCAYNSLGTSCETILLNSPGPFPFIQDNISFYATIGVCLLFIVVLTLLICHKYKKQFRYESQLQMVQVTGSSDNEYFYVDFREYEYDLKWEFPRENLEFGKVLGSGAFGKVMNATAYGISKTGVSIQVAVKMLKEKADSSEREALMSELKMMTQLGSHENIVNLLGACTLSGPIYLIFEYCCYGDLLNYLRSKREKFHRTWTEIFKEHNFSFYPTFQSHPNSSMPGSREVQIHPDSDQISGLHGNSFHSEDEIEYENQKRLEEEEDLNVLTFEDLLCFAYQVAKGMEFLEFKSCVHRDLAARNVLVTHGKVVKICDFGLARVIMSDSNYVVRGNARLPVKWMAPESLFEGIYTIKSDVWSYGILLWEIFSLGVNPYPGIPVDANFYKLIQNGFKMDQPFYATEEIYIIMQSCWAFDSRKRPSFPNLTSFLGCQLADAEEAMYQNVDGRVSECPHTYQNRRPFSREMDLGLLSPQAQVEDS

[2] = test system: T2, Receptor-type tyrosine-protein kinase FLT3 (Homo sapiens), P36888 [D835H]; assay: as §1
T2 sequence (whole entry): T1 sequence (whole entry) with V835H

[3] = test system: T3, Receptor-type tyrosine-protein kinase FLT3 (Homo sapiens), P36888 [K663Q]; assay: as §1
T3 sequence (whole entry): T1 sequence (whole entry) with K663Q, V835D

% of control [1]: 3.2%
% of control [2]: 16%
% of control [3]: 13%
Structure (SMILES): CCc1ccccc1C(=O)Nc1n[nH]c2c(C)c(F)c(C3C(C#N)=C(C)N(C)C(C)=C3C#N)cc12 [BAY-3827]
